# Assay results published in patent US20260183320A1, “METHOD FOR TREATING CANCER BY COMBINING ALKYLATING AGENT PRODRUG AND CELL CYCLE INHIBITOR” (ASCENTAWITS PHARMACEUTICALS, LTD., priority 2022, published 2026).
# pIC50: −log10 of the molar value.
# How the values were obtained:
# H460 cell line = H460 cell line proliferation inhibition assay under normoxia and hypoxia (CTG); type: cell-based; settings: for pIC50: Homo sapiens, NCI-H460, H460
# Method: (§1) 24-well plates with glass inserts were used in assays under hypoxia, and ordinary plastic 24-well plates were used in assays under normoxia. • 2) The cells were incubated overnight at 37° C. in an incubator with 5% CO2. • 3) Treatment with Compounds
# (§2) A hypoxia workstation was tuned to create a hypoxic environment, and an oxygen indicator was used to confirm the hypoxia in the workstation.
# (§3) After cell plating for 24 hours, the 24-well plates with glass inserts were transferred into the hypoxia workstation.
# (§4) The 24-well plates were placed on a shaker, uncovered and shaken to allow air exchange for 5 min.
# (§5) For each well for combination therapy, 5 or 10 μL of medium was removed and 5 μL of adavosertib (to a final concentration of 1 or 10 μM) or ceralasertib (to a final concentration of 200 or 2000 μM), followed by incubation for 2 h.
# (§6) To each well, 5 or 10 μL of the compound was added at a 100× concentration. Three replicate wells were set up for each group.
# (§7) Gentle shaking was carried out until homogeneous mixing of the compound, and the 24-well plates were incubated for 3 hours in the hypoxia workstation with their lids being half opened.
# (§8) 24 hours after plating of the cells, for each well for combination therapy, 5 or 10 μL of medium was removed and 5 μL of adavosertib (to a final concentration of 1 or 10 μM) or ceralasertib (to a final concentration of 200 or 2000 μM), followed by incubation for 2 h.
# In the H460 cell proliferation inhibition assays, adavosertib was added to final concentrations of 3 μM and 30 μM, and ceralasertib was added to final concentrations of 2 μM, 20 µM and 1000 μM.
# HT29 cell line = HT29 cell line proliferation inhibition assay under normoxia and hypoxia (CTG); type: cell-based; settings: for additive cytotoxic effect in combination therapy with adavosertib / additive cytotoxic effect in combination therapy with ceralasertib: HT29 (p53-deficient); for Ratio single/combo under Hypoxia / Ratio single/combo under Normoxia / Normoxia/Hypoxia Ratio: HT29; for pIC50: Homo sapiens, HT-29, HT29
# Method: as §1, §2, §3, §4, §5, §6, §7, §8
# [1] = H460 (wild-type p53), normoxia or hypoxia
structure (smiles),measurement,setting,value
Cn1c(COP(=O)(NCCBr)NCCBr)cnc1[N+](=O)[O-] [TH-302],additive cytotoxic effect in combination therapy with adavosertib,H460 cell line; [1],did not exhibit any significant additive cytotoxic effects
same,additive cytotoxic effect in combination therapy with ceralasertib,H460 cell line; [1],did not exhibit any significant additive cytotoxic effects
same,Ratio combo/single under Normoxia,"H460 cell line; H460, 2 μM ceralasertib",1.07
same,Ratio single/combo under Hypoxia,"H460 cell line; H460, 2 μM ceralasertib",1.71
same,Ratio single/combo under Hypoxia,"H460 cell line; H460, 3 μM adavosertib",1.56
same,Ratio single/combo under Normoxia,"H460 cell line; H460, 3 μM adavosertib",1.12
same,Ratio single/combo under Hypoxia,"H460 cell line; H460, 20 μM ceralasertib",1.49
same,Ratio single/combo under Normoxia,"H460 cell line; H460, 20 μM ceralasertib",1.05
same,Ratio single/combo under Hypoxia,"H460 cell line; H460, 30 μM adavosertib",2.14
same,Ratio single/combo under Hypoxia,"H460 cell line; H460, 1000 μM ceralasertib",>6.17
same,Ratio single/combo under Normoxia,"H460 cell line; H460, 1000 μM ceralasertib",1.36
same,Normoxia/Hypoxia Ratio,"H460 cell line; H460, monotherapy, Table 17",824.83
same,Normoxia/Hypoxia Ratio,"H460 cell line; H460, monotherapy, Table 19",1737.84
same,Normoxia/Hypoxia Ratio,"H460 cell line; H460, with 2 μM ceralasertib",3190.74
same,Normoxia/Hypoxia Ratio,"H460 cell line; H460, with 3 μM adavosertib",1448.06
same,Normoxia/Hypoxia Ratio,"H460 cell line; H460, with 20 μM ceralasertib",2464.52
same,Normoxia/Hypoxia Ratio,"H460 cell line; H460, with 30 μM adavosertib",1518.50
same,Normoxia/Hypoxia Ratio,"H460 cell line; H460, with 1000 μM ceralasertib",>7853.33
same,pIC50,"H460 cell line; monotherapy, hypoxia, adavosertib series (Table 17)",7.59
same,pIC50,"H460 cell line; monotherapy, hypoxia, ceralasertib series (Table 19)",7.73
same,pIC50,"H460 cell line; monotherapy, normoxia, adavosertib series (Table 17)",4.68
same,pIC50,"H460 cell line; monotherapy, normoxia, ceralasertib series (Table 19)",4.49
same,pIC50,"H460 cell line; with 2 μM ceralasertib, hypoxia",7.97
same,pIC50,"H460 cell line; with 2 μM ceralasertib, normoxia",4.46
same,pIC50,"H460 cell line; with 3 μM adavosertib, hypoxia",7.79
same,pIC50,"H460 cell line; with 3 μM adavosertib, normoxia",4.63
same,pIC50,"H460 cell line; with 20 μM ceralasertib, hypoxia",7.91
same,pIC50,"H460 cell line; with 20 μM ceralasertib, normoxia",4.51
same,pIC50,"H460 cell line; with 30 μM adavosertib, hypoxia",7.92
same,pIC50,"H460 cell line; with 30 μM adavosertib, normoxia",4.74
same,pIC50,"H460 cell line; with 1000 μM ceralasertib, hypoxia",> 8.52
same,pIC50,"H460 cell line; with 1000 μM ceralasertib, normoxia",4.63
same,additive cytotoxic effect in combination therapy with adavosertib,"HT29 cell line; adavosertib at a high concentration, hypoxia",significant additive cytotoxic effect
same,additive cytotoxic effect in combination therapy with ceralasertib,"HT29 cell line; ceralasertib at a high concentration, hypoxia",significant additive cytotoxic effect
same,additive cytotoxic effect in combination therapy with adavosertib,HT29 cell line; normoxia,did not exhibit any significant additive cytotoxic effects
same,additive cytotoxic effect in combination therapy with ceralasertib,HT29 cell line; normoxia,did not exhibit any significant additive cytotoxic effects
same,Ratio single/combo under Hypoxia,HT29 cell line; 1 μM adavosertib,2.49
same,Ratio single/combo under Normoxia,HT29 cell line; 1 μM adavosertib,2.41
same,Ratio single/combo under Hypoxia,HT29 cell line; 10 μM adavosertib,8.68
same,Ratio single/combo under Normoxia,HT29 cell line; 10 μM adavosertib,6.57
same,Ratio single/combo under Hypoxia,HT29 cell line; 200 μM ceralasertib,7.11
same,Ratio single/combo under Normoxia,HT29 cell line; 200 μM ceralasertib,1.24
same,Ratio single/combo under Hypoxia,HT29 cell line; 2000 μM ceralasertib,>44.66
same,Ratio single/combo under Normoxia,HT29 cell line; 2000 μM ceralasertib,2.77
same,Normoxia/Hypoxia Ratio,"HT29 cell line; monotherapy, Table 16",74.35
same,Normoxia/Hypoxia Ratio,"HT29 cell line; monotherapy, Table 18",51.62
same,Normoxia/Hypoxia Ratio,HT29 cell line; with 1 μM adavosertib,76.80
same,Normoxia/Hypoxia Ratio,HT29 cell line; with 10 μM adavosertib,98.18
same,Normoxia/Hypoxia Ratio,HT29 cell line; with 200 μM ceralasertib,294.78
same,Normoxia/Hypoxia Ratio,HT29 cell line; with 2000 μM ceralasertib,>821.56
same,pIC50,"HT29 cell line; monotherapy, hypoxia, adavosertib series (Table 16)",4.63
same,pIC50,"HT29 cell line; monotherapy, hypoxia, ceralasertib series (Table 18)",4.84
same,pIC50,"HT29 cell line; monotherapy, normoxia, adavosertib series (Table 16)",~2.76
same,pIC50,"HT29 cell line; monotherapy, normoxia, ceralasertib series (Table 18)",3.13
same,pIC50,"HT29 cell line; with 1 μM adavosertib, hypoxia",5.03
same,pIC50,"HT29 cell line; with 1 μM adavosertib, normoxia",3.14
same,pIC50,"HT29 cell line; with 10 μM adavosertib, hypoxia",5.57
same,pIC50,"HT29 cell line; with 10 μM adavosertib, normoxia",3.58
same,pIC50,"HT29 cell line; with 200 μM ceralasertib, hypoxia",5.70
same,pIC50,"HT29 cell line; with 200 μM ceralasertib, normoxia",3.23
same,pIC50,"HT29 cell line; with 2000 μM ceralasertib, hypoxia",> 6.49
same,pIC50,"HT29 cell line; with 2000 μM ceralasertib, normoxia",3.58
